Measurements taken from ChEMBL document CHEMBL1201862, “PubChem BioAssay data set” (2004).
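Growth conditions: 96-well plates. Treatment: test compound, 48 hours, 5 concentrations. Analysis: linear interpolation between bracketing concentrations; unreached endpoints set to highest concentration. Here, GI50 denotes the concentration required for 50% inhibition of growth.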 Active and inactive are the calls of the source. Rule as the data show it: active = GI50 up to about 1.1 µM and inactive = higher.

Assays:
Test in all cases: DTP human tumour cell line panel, 48 h
HCT-116 = tested on: HCT-116
LOX IMVI = tested on: LOX IMVI
UO-31 = tested on: UO-31
SK-MEL-2 = tested on: SK-MEL-2
HCT-15 = tested on: HCT-15
MDA-N = tested on: MDA-N
786-0 = tested on: 786-0
HOP-92 = tested on: HOP-92
NCI-H226 = tested on: NCI-H226
A549 = tested on: A549
PC-3 = tested on: PC-3
HL-60 = tested on: HL-60
SNB-19 = tested on: SNB-19
T47D = tested on: T47D
CAKI-1 = tested on: CAKI-1
MOLT-4 = tested on: MOLT-4
U-251 = tested on: U-251
SR = tested on: SR
NCI-H460 = tested on: NCI-H460

| SMILES | GI50 (HCT-116) | GI50 (LOX IMVI) | GI50 (UO-31) | GI50 (SK-MEL-2) | GI50 (HCT-15) [µM] | GI50 (MDA-N) | GI50 (786-0) | GI50 (HOP-92) | GI50 (NCI-H226) | GI50 (A549) | GI50 (PC-3) | GI50 (HL-60) | GI50 (SNB-19) | GI50 (T47D) | GI50 (CAKI-1) | GI50 (MOLT-4) | GI50 (U-251) | GI50 (SR) | GI50 (NCI-H460) |
| --- | --- | --- | --- | --- | --- | --- | --- | --- | --- | --- | --- | --- | --- | --- | --- | --- | --- | --- | --- |
| CCCOc1ccc(-c2nc(-c3ccc(/N=C/c4ccc(N(CCOS(C)(=O)=O)CCOS(C)(=O)=O)cc4C)cc3)cs2)cc1 | 29.4 µM (inactive) | 14.9 µM (inactive) | 11.7 µM (inactive) | 24.5 µM (inactive) | 23.4 | 28.7 µM (inactive) | 3.35 µM (inactive) | 24.4 µM (inactive) | 22.9 µM (inactive) | 4.59 µM (inactive) | 18.5 µM (inactive) | 5.05 µM (inactive) | 41.7 µM (inactive) | 26.9 µM (inactive) | 1.3 µM (inactive) | 5.35 µM (inactive) | 27.9 µM (inactive) | 3.85 µM (inactive) | 0.286 µM (active) |
| COc1ccc([N+](=O)[O-])c2c(NCCCN(C)C)c3ccccc3nc12 | 0.112 µM (active) | 0.461 µM (active) | 0.255 µM (active) | 0.131 µM (active) | 0.0935 | 0.425 µM (active) | 0.0778 µM (active) | 0.0782 µM (active) | 0.225 µM (active) | 0.0843 µM (active) | 0.0276 µM (active) | 0.662 µM (active) | 0.202 µM (active) | 0.2 µM (active) | 0.333 µM (active) | 0.0326 µM (active) | 0.152 µM (active) | < 0.01 µM (active) | 0.0355 µM (active) |
| CC(=O)N(C(=O)CC(=O)NNCc1ccccc1Cl)c1ccc(Cl)cc1 | > 10 µM (inactive) | > 10 µM (inactive) | > 10 µM (inactive) | > 10 µM (inactive) | > 10 | > 10 µM (inactive) | > 10 µM (inactive) | > 10 µM (inactive) | > 10 µM (inactive) | > 10 µM (inactive) | > 10 µM (inactive) | > 10 µM (inactive) | > 10 µM (inactive) | 8.11 µM (inactive) | > 10 µM (inactive) | > 10 µM (inactive) | > 10 µM (inactive) | > 10 µM (inactive) | > 10 µM (inactive) |
| COc1ccc2c(c1)CC[C@@H]1C2CC[C@]2(C)OC(=O)CCC12 (stereo partly drawn) | 8.89 µM (inactive) | 6.67 µM (inactive) | 17.9 µM (inactive) | 23.1 µM (inactive) | 17.5 | 20.3 µM (inactive) | 5.85 µM (inactive) | 13 µM (inactive) | 11.7 µM (inactive) | 27.9 µM (inactive) | 12.6 µM (inactive) | > 100 µM (inactive) | 17.4 µM (inactive) | 34.6 µM (inactive) | 31.6 µM (inactive) | > 100 µM (inactive) | 6.87 µM (inactive) | 5.12 µM (inactive) | 22.7 µM (inactive) |
| CCOC(=O)c1cc2c([nH]1)C(=O)CC1=C2CCN1Cc1ccccc1 | 13 µM (inactive) | 13.3 µM (inactive) | 15.3 µM (inactive) | 20.5 µM (inactive) | 8.53 | 13.5 µM (inactive) | 17.2 µM (inactive) | 14.3 µM (inactive) | 0.585 µM (active) | 21.4 µM (inactive) | 20.5 µM (inactive) | 7.4 µM (inactive) | 17.5 µM (inactive) | 2.45 µM (inactive) | 3.46 µM (inactive) | 4.06 µM (inactive) | 12.5 µM (inactive) | 5.02 µM (inactive) | 18.4 µM (inactive) |
| Oc1nc(S)nc(SCc2c(Cl)c(Cl)c(Cl)c(Cl)c2Cl)n1 | 39.8 µM (inactive) | > 63.1 µM (inactive) | 30 µM (inactive) | 52.5 µM (inactive) | 49 | 47.4 µM (inactive) | 42.7 µM (inactive) | 77.8 µM (inactive) | > 69.8 µM (inactive) | > 96.4 µM (inactive) | > 67.9 µM (inactive) | 20.1 µM (inactive) | > 100 µM (inactive) | 27.9 µM (inactive) | 30.6 µM (inactive) | 0.809 µM (active) | > 100 µM (inactive) | 0.184 µM (active) | 58.2 µM (inactive) |
| CC(=O)OC(C)(C)/C=C/C(=O)[C@](C)(O)[C@H]1[C@H](O)C[C@@]2(C)[C@@H]3CC=C4[C@@H](C[C@H](O)C(=O)C4(C)C)[C@]3(C)C(=O)C[C@]12C | < 0.01 µM (active) | < 0.01 µM (active) | < 0.01 µM (active) | < 0.01 µM (active) | < 0.01 | < 0.01 µM (active) | < 0.01 µM (active) | 0.0175 µM (active) | < 0.01 µM (active) | < 0.01 µM (active) | < 0.01 µM (active) | < 0.01 µM (active) | < 0.0174 µM (active) | 0.0362 µM (active) | < 0.01 µM (active) | 0.167 µM (active) | < 0.01 µM (active) | < 0.01 µM (active) | < 0.01 µM (active) |
